{
  "source": "patent US20210008220A1",
  "about": "“PHARMACEUTICAL COMPOSITIONS CONTAINING POLYROTAXANES” (UNIVERSITY OF GEORGIA RESEARCH FOUNDATION, INC., priority 2018, published 2021)",
  "key": {"[1]": {"system": "NIO J774A.1 macrophage cells", "assay": "in vitro cytotoxicity, resazurin assay, NIO cells", "assay_type": "cell-based", "conditions": "Mus musculus, J774.A1, 48 h, rPR-DFO at equivalent DFO concentrations, read-out: concentration inhibiting 50% cell viability", "procedure": "Briefly, both NIO and IO J774A.1 macrophage cells were seeded in 96-well plates at a density of 3,000 cells/well, cultured at 37° C., 5% CO2 and 100% humidity with DMEM complete medium for 24 h. Cells were then treated with 1 mM free DFO or rPR-DFO at equivalent DFO concentrations (prepared by 1:3 serial dilutions) for 48 h; equivalent rPR-OH based on w/v to rPR-DFO concentrations was also investigated. Next, the substrate resazurin was dissolved in cell culture medium at a concentration of 44 μM, added to each well (100 μl), and incubated at 37° C. for 4 h. The fluorescence change was monitored by exciting at 560 nm and measuring emission at 590 nm with a SpectraMax Gemini EM microplate reader. Readings from wells without cells were used as Eblank, and the readings from control cells without treatment (Econtrol) represented 100% cell viability. The viability of treated cells was calculated by the following equation:"}, "NIO mice (Balb/C)": {"system": "NIO mice (Balb/C)", "assay": "acute toxicity in normal NIO mice", "assay_type": "in vivo, mouse", "conditions": "single-dose 300 mg/kg DFO equiv or 100 mg/kg DFO equiv every 2 days x6, tail-vein, 14 days", "method": "Normal NIO mice (Balb/C, Female, 6 weeks old), randomly divided into 7 groups (n=6), were treated with saline, single-dose (300 mg/kg DFO equiv) or multiple-dose (100 mg/kg DFO equiv every 2 days, six doses total) regimens of DFO, rPR-DFO, and rPR-OH (same concentrations as rPR-DFO based on w/v) via tail-vein injections (10 μL/g). Mice were monitored for 14 days for signs of acute toxicity based on body weight loss, changes in appetite, and changes in behavior such as altered gait and lethargy. The body weights of the mice were recorded every other day over the course of the study. Mice were euthanized by CO2 overdose on the 14th day. The lungs, heart, spleen, kidneys, brain and liver of animals were subsequently harvested, rinsed with fresh PBS, blotted dry with Whatman filter paper, and then weighed (note that organ weight is reported as mg of total organ weight per g of animal bw, mg/g). […] Mice also behaved normally and no changes in appetite were noted."}, "[2]": {"conditions": "in humans; cited from earlier work"}},
  "data": [
    {"smiles": "CC(=O)N(O)CCCCCNC(=O)CCC(=O)N(O)CCCCCNC(=O)CCC(=O)N(O)CCCCCN", "note": "[DFO, Deferoxamine]", "values": [
      {"measurement": "IC50", "setting": "[1]", "value": "~10", "unit": "µM"},
      {"measurement": "acute toxicity based on body weights and organ weights", "setting": "NIO mice (Balb/C)", "value": "no apparent evidence of acute toxicity"},
      {"measurement": "half-life (blood circulation)", "setting": "[2]", "value": "ca. 20 min"}
    ]}
  ]
}
